Test results published in patent US12144823B2, “Porous silicate and/or aluminosilicate matrix/cerium oxide nanoparticle nanocarrier for combination anti-cancer therapeutic and antioxidant delivery” (Imam Abdulrahman Bin Faisal University, priority 2022, dated 2024).
Entries after “also recorded” stand apart in the source; their conditions may differ.

Experiments:
[1] = tested on: MCF-7 (Human Breast Cancer) cells; assay: Cytotoxicity assay by MTT, MCF-7 cells; type: cell-based
Experimental: (§1) MCF-7 (Human Breast Cancer) and HFF-1 (Human Foreskin Fibroblasts) cell lines were sub-cultured in DMEM (Dullbecco's Modified Eagle Medium) supplemented with 1% of L-Glutamine, 10% of Fetal Bovine Serum as FBS (Gibco), 1% of Non-Essential Amino Acid (Gibco), and 1% of penicillin and streptomycin. The cells were cultured in a humidified CO2 incubator at 37° C. (Thermoscientific, Waltham, MA). The cells were seeded for in a 96 well plate (Thermo Fisher, Waltham, USA) with 10,000 cells per well. […] The cells were tested after 24, 48 and 72 hours using (Thiazolyl Blue Tetrazolium Bromide, MOLEQULE-ON) MTT assay.
(§2) Cultured media along with NPs were removed from 96 well plates and the cells were washed with 1×PBS.
(§3) The statistical analysis was done for determining the MTT cytotoxicity assay, using an unpaired two-way ANOVA (GraphPad Prism software), P-value is set at <0.05 (* if P≤0.05, ** if P≤0.01, *** if P≤0.001, **** if P≤0.0001) were considered statistically significant. The results were calculated from different three experiments.
The cytotoxicity study was performed to evaluate the toxicity of CeO2 nanoparticles against breast cancer cell line (MCF-7) and a non-cancerous cell line of human foreskin fibroblast (HFF-1). Different concentrations were applied (see Table 1) for 24, 48 and 72 hours, then, cytotoxicity was measured by MTT assay after each period of treatment. The data were plotted in scattered graphs using excel to calculate the EC50 values from the exponential trendline generated equation. The statistical significance with the p value and standard deviation were analyzed by two-way ANOVA test in GraphPad, Prism software. […] In addition, EC50 values were calculated to estimate the half maximal cytotoxic effect after each time point.

[2] = tested on: HFF-1 (Human Foreskin Fibroblasts) cells; assay: Cytotoxicity assay by MTT, HFF-1 cells; type: cell-based
Experimental: as §1, §2, §3

MCF-7 cells = assay: Imaging of treated cells by light microscopy, MCF-7; type: cell-based, Human; settings: 200 or 400 μg/mL, 48 h, light microscope
Experimental: (§4) The cells were observed under the light microscope after each time point to evaluate the morphological changes and study the NPs effect on cell proliferation without fixation. The images were taken by light microscope (TS100F Eclipse, Nikon, Tokyo, Japan) that can work with a digital camera and combined with its Nikon microscope program.
(§5) The effect of nanocomposites on cell morphology was imaged by using a light microscope after each time point. MCF-7 cells and HFF-1 cells were treated with either 200 or 400 μg/mL for 48 h to evaluate the average morphological changes. […] In the microscopy images, the magnification was ×100 and the scale bar represents 100 μm.

HFF-1 cells = assay: Imaging of treated cells by light microscopy, HFF-1; type: cell-based, Human; settings: 200 or 400 μg/mL, 48 h, light microscope
Experimental: as §4, §5

SMILES: N.N.[Cl][Pt][Cl] [cisplatin]
- EC50 Value of treated MCF-7 cells, 24 h ([1]; MCF-7, MTT, 24 h treatment): 21.58 µg/mL
- EC50 Value of treated MCF-7 cells, 48 h ([1]; MCF-7, MTT, 48 h treatment): 8.03 µg/mL
- EC50 Value of treated MCF-7 cells, 72 h ([1]; MCF-7, MTT, 72 h treatment): 3.12 µg/mL
- EC50 Value of treated HFF-1 cells, 24 h ([2]; HFF-1, MTT, 24 h treatment): 52.3 µg/mL
- EC50 Value of treated HFF-1 cells, 48 h ([2]; HFF-1, MTT, 48 h treatment): 12.62 µg/mL
- EC50 Value of treated HFF-1 cells, 72 h ([2]; HFF-1, MTT, 72 h treatment): 6.58 µg/mL
- effect on cell morphology and proliferation, MCF-7 (MCF-7 cells): cell death morphological structures
- effect on cell morphology and proliferation, HFF-1 (HFF-1 cells): cell death morphological structures

SMILES: COc1cc(/C=C/C(=O)CC(=O)/C=C/c2ccc(O)c(OC)c2)ccc1O [curcumin]
- cytotoxic efficacy against MCF-7 cells (in words) ([1]; MTT, 24-72 h): lowest efficacy with high cell viability percentages; also recorded: rapidly enhanced the cell growth
- cytotoxic efficacy against HFF-1 cells (in words) ([2]; MTT, 24-72 h): less efficacy
- effect on cell morphology and proliferation, MCF-7 (MCF-7 cells): slightly affected
- effect on cell morphology and proliferation, HFF-1 (HFF-1 cells): slightly affected
